# Assay results published in ChEMBL document CHEMBL3351613, “Indolylarylsulfones carrying a heterocyclic tail as very potent and broad spectrum HIV-1 non-nucleoside reverse transcriptase inhibitors” (J Med Chem, 2014).
# pEC50, pIC50: −log10 of the molar value.
# Legend:
# [1] = tested on: Human immunodeficiency virus 1; experiment: Antiviral activity against HIV1 NL4-3 infected in human MT4 cells assessed as reduction in virus-induced cell death by MTT assay; assay type: functional, organism-based; conditions: Human immunodeficiency virus 1, NL4-3, MT4
# [2] = tested on: Human immunodeficiency virus 1; assay type: functional, organism-based; conditions: Human immunodeficiency virus 1, NL4-3, MT4
# [3] = tested on: Human immunodeficiency virus 1; experiment: Antiviral activity against HIV1 NL4-3 expressing reverse transcriptase L100I mutant infected in human MT4 cells assessed as reduction in virus-induced cell death by MTT assay; assay type: functional, organism-based; conditions: Human immunodeficiency virus 1, NL4-3, MT4
# [4] = tested on: Human immunodeficiency virus 1; assay type: functional, organism-based; conditions: Human immunodeficiency virus 1, NL4-3, MT4; remark: listed apart in the source
# [5] = tested on: Human immunodeficiency virus 1; experiment: Antiviral activity against HIV1 NL4-3 expressing reverse transcriptase K103N mutant infected in human MT4 cells assessed as reduction in virus-induced cell death by MTT assay; assay type: functional, organism-based; conditions: Human immunodeficiency virus 1, NL4-3, MT4
# [6] = Cytotoxic activity against human MT4 cells by MTT assay; assay type: cell-based
# [7] = tested on: Human immunodeficiency virus 1; assay type: functional, organism-based; conditions: Human immunodeficiency virus 1, NL4-3, MT4; remark: listed apart in the source
# [8] = biological target: Human immunodeficiency virus type 1 reverse transcriptase (Human immunodeficiency virus 1, UniProt Q72547, Y181I)
# [9] = biological target: Human immunodeficiency virus type 1 reverse transcriptase (Human immunodeficiency virus 1, UniProt Q72547)
# Description: Inhibition of wild type HIV1 reverse transcriptase assessed as reduction in enzyme activity
# [10] = biological target: Human immunodeficiency virus type 1 reverse transcriptase (Human immunodeficiency virus 1, UniProt Q72547, K103N)
# Description: Inhibition of wild type HIV1 reverse transcriptase K103N mutant assessed as reduction in enzyme activity
# [11] = in vitro; conditions: human, MT4 cells
# Description: Selectivity index, ratio of CC50 for human MT4 cells to EC50 for HIV1 NL4-3 infected in human MT4 cells
# [12] = biological target: Human immunodeficiency virus type 1 reverse transcriptase (Human immunodeficiency virus 1, UniProt Q72547, L100I)
# Description: Inhibition of wild type HIV1 reverse transcriptase L100I mutant assessed as reduction in enzyme activity
# [13] = tested on: Human immunodeficiency virus 2; experiment: Antiviral activity against HIV2 ROD infected in human CEM cells assessed as protection against virus-induced cytopathicity by giant cell formation assay; assay type: functional, organism-based; conditions: Human immunodeficiency virus 2, ISOLATE ROD, CCRF-CEM
# [14] = tested on: Human immunodeficiency virus 1; experiment: Antiviral activity against HIV1 3B infected in human CEM cells assessed as protection against virus-induced cytopathicity by giant cell formation assay; assay type: functional, organism-based; conditions: Human immunodeficiency virus 1, 3B, CCRF-CEM
SMILES,pEC50 [1],pEC50 [2],pEC50 [3],pEC50 [4],pEC50 [5],CC50 [6],pEC50 [7],pIC50 [8],pIC50 [9],pIC50 [10],selectivity ratio [11],pIC50 [12],pEC50 [13],pEC50 [14]
Cc1ccnc2c1NC(=O)c1cccnc1N2C1CC1 [NEVIRAPINE],6.95,< 5.43,7.22,< 5.43,< 5.43,> 18800 nM,< 5.43,,,,,,,
Cc1cc(C)cc(S(=O)(=O)c2c(C(=O)NN(C)c3ccccc3)[nH]c3ccc(Cl)cc23)c1,8.68,< 4.37,,5.83,7.19,44100 nM,< 4.37,< 4.70,7.80,6.63,21000,,,
Cc1cc(C)cc(S(=O)(=O)c2c(C(=O)Nc3ccncc3)[nH]c3ccc(Cl)cc23)c1,9.64,5.90,,7.80,,20600 nM,< 4.69,,,,89600,,,
Cc1cc(C)cc(S(=O)(=O)c2c(C(=O)NCc3ccccc3)[nH]c3ccc(Cl)cc23)c1,9.66,7.05,,,9.05,38000 nM,5.72,< 4.70,,< 4.70,173000,,,
Cc1cc(C)cc(S(=O)(=O)c2c(C(=O)NCc3cccs3)[nH]c3ccc(Cl)cc23)c1,9.15,,8.15,6.80,8.04,> 54500 nM,< 4.26,< 4.70,7.52,< 4.70,> 77800,7.00,< 5.00,8.28
Cc1cc(C#N)cc(C)c1Oc1nc(Nc2ccc(C#N)cc2)nc(N)c1Br [ETRAVIRINE],8.43,7.48,,8.22,7.80,> 30600 nM,7.80,,,,,,,
Cc1cc(C)cc(S(=O)(=O)c2c(C(=O)NCCc3ccccc3)[nH]c3ccc(Cl)cc23)c1,8.68,< 4.44,,6.97,7.68,37900 nM,< 4.27,< 4.70,,,18000,,,
Cc1cc(C)cc(S(=O)(=O)c2c(C(=O)NNc3ccncc3)[nH]c3ccc(Cl)cc23)c1,7.38,,,< 4.70,4.80,30300 nM,4.26,< 4.70,< 4.70,< 4.70,727,5.03,≤ 4.30,6.14
Cc1cc(C)cc(S(=O)(=O)c2c(C(=O)NCCn3c([N+](=O)[O-])cnc3C)[nH]c3ccc(Cl)cc23)c1,9.21,,6.85,6.17,6.85,25400 nM,< 4.31,6.88,7.36,6.19,40900,6.80,< 5.00,8.39
Cc1cc(C)cc(S(=O)(=O)c2c(C(=O)NC(C)c3cccs3)[nH]c3ccc(Cl)cc23)c1 (stereo not drawn),9.70,6.46,,7.17,8.68,32300 nM,5.58,,7.57,7.10,162000,,,
Cc1cc(C)cc(S(=O)(=O)c2c(C(=O)NCc3ccco3)[nH]c3ccc(Cl)cc23)c1,9.70,7.35,,9.10,,> 56400 nM,6.01,6.63,8.52,8.05,> 282000,,,
Cc1cccc(C)c1S(=O)(=O)c1c(C(=O)NCc2ccncc2)[nH]c2ccc(Cl)cc12,6.48,< 4.26,,< 4.26,< 4.26,> 55100 nM,< 4.26,,,,> 167,,,
